Results on 3 compounds are retold here after US20210024498A1, “TETRAHYDROPYRROLE COMPOUND, PREPARATION METHOD THEREFOR, PHARMACEUTICAL COMPOSITION CONTAINING SAME, AND USE THEREOF” (MEDICONNS (SHANGHAI) BIOPHARMACEUTICAL CO., LTD, priority 2017, published 2021).

One may read the IC50 as the concentration needed to halve the response being measured.

Test [1] deals with Amphetamine-induced high locomotor activity in mice. Nature of the test: Amphetamine-induced high locomotor activity (LMA) in mice. Format: in vivo. On the set-up: Distance resulting from the activity, First 30 min / Distance resulting from the activity, Last 30 min: unit not given here. The note with it: for Distance resulting from the activity, First 30 min / Distance resulting from the activity, Last 30 min: Amphetamine 1.0 mg/kg s.c., male ICR mice; for Effect on Amphetamine-induced high locomotor activity compared with olanzapine (in words) / Inhibition of Amphetamine-induced high locomotor activity (in words): 5, 10, 20 mg/kg; for Effect on Amphetamine-induced high locomotor activity compared with olanzapine (in words): p.o. vs olanzapine 5.0 mg/kg p.o.; for Inhibition of Amphetamine-induced high locomotor activity (in words): p.o., P<0.05-0.01. The method, then:
The test compound MDC was a milky white powder and stored in a shade and cool place (formulated with 1% DMSO before use). […] Amphetamine, purchased from Sigma-Aldrich, was a white powder (formulated with normal saline before use). 1% DMSO was formulated by diluting pure DMSO (purity>99.5, purchased from Sigma) with normal saline.
(§1) Male ICR mice having weight 22±2 g were kept at 8 mice/cage with 12/12 hours light/dark cycle, temperature 23° C.±1° C., humidity 50% to 60%, free to eat and drink water.
The administration volume was 0.1 ml/10 g body weight; Amphetamine was freshly formulated with normal saline at a dose of 1.0 mg/kg and administered subcutaneously.
(§2) After one week of acclimation, mice were randomly divided into 6 groups according to their body weight: negative control group, model group, positive control group, and low dose group, medium dose group and high dose group for the test compound. 8-10 animals/group.
(§3) Group 1: Negative control group: Normal saline (s.c.)+1% DMSO (10.0 ml/kg, p.o.);
Group 2: Model group: Amphetamine (1.0 mg/kg, s.c.)+1% DMSO (10.0 ml/kg, p.o.);
Group 4: MDC low dose group: Amphetamine (1.0 mg/kg, s.c.)+MDC (5 mg/kg, p.o.);
Group 5: MDC medium dose group: Amphetamine (1.0 mg/kg, s.c.)+MDC (10 mg/kg, p.o.);
Group 6: MDC high dose group: Amphetamine (1.0 mg/kg, s.c.)+MDC (20 mg/kg, p.o.).
After administration, the animals were immediately placed in a locomotor activity box and recorded by Shanghai Jiliang animal video analysis system for 1 hour.
(§4) After the experiment, the activity of the animals within 1 hour was analyzed using the trajectory analysis software of Shanghai Jiliang animal video analysis system to obtain the total distance resulting from the activity.

The target of test [2] is DAT (Homo sapiens, UniProt Q01959). In words: DAT transporter assay (neurotransmitter transporter absorption assay). The format is cell-based. The procedure: Bioactivity Test • I. D2 receptor affinity assay: The affinity of the compound to D2 receptor was determined by radioligand competition assay, and the cloned D2 receptor was expressed in HEK293 cell line. • II. D2 receptor function assay: The ability of the compound to antagonize the D2 receptor was determined using a calcium mobilization assay (FLIPR). • III. DAT receptor function assay: The ability of the compound to inhibit DAT was determined by neurotransmitter transporter absorption assay.
• HBSS1×, REPES 20 mM, BSA 0.1%.
• Lyophilized fluorescent dye 1 vial, Assay buffer 10 mL.
• BTCP—hydrochloride (Sigma)
• i) The medium was preheated in 37° C. water bath in advance for more than 30 minutes for later use. • j) The preheated medium was taken out, disinfected with 75% alcohol, and put into a biosafety cabinet. • k) The cultured cells were taken out from the […], and the medium was removed by a vacuum pump. 1× DPBS was added, incubated for a moment, and then removed by a vacuum pump. Appropriate amount of 0.05% trypsin-EDTA was added for cell digestion. The digestion was terminated by 10% FBS medium, and the cells were pipetted and dispersed. • l) The dispersed cells were transferred into a 50 mL centrifuge tube with a pipette.
• a) The reference compound was diluted in a ratio of 1:3 to 10 concentration gradients with the detection buffer containing 0.1% BSA, with the highest concentration being 2 μM. The compound to be tested was diluted to 20 uM with the detection buffer containing 0.1% BSA. • b) A centrifuge (750 rpm, 15 s) was used to spin off the culture solution in the cell culture plate, and the compound solution in step 1 was transferred to the cell culture plate (25 uL/well). • HC (High control): 25 μL of 0.1% BSA detection buffer containing 0.2% DMSO. • LC (Low control): 25 μL of solution containing 2 μM positive antagonist. • c) After centrifugation at 300 rpm for 15 seconds, the plate was incubated at 37° C. for 30 minutes. After the incubation with the compound was completed, a dye solution (25 μL/well) was added and incubated at 37° C. for 30 minutes.
Inhibitor % activity=100−(signal value per well−average value for LC well)/(average value for H well−average value for LC well)*100%.

For test [3], the system named is PCP-induced high locomotor activity in mice. Nature of the test: Phencyclidine (PCP) induced high locomotor activity (LMA) in mice. Format: in vivo. On the set-up: Distance resulting from the activity, First 30 min / Distance resulting from the activity, Last 30 min: unit not given here. The note with it: for Distance resulting from the activity, First 30 min / Distance resulting from the activity, Last 30 min: PCP 5.0 mg/kg s.c., male ICR mice; for Effect on PCP-induced high locomotor activity compared with olanzapine (in words) / Inhibition of PCP-induced high locomotor activity (in words): 5, 10, 20 mg/kg; for Effect on PCP-induced high locomotor activity compared with olanzapine (in words): p.o. vs olanzapine 5 mg/kg p.o.; for Inhibition of PCP-induced high locomotor activity (in words): p.o., P<0.05-0.01.
Excerpt: • 1. The effect of the compound on phencyclidine (PCP) induced high locomotor activity (LMA) in mice was detected.
The test compound MDC was milky white powder and stored in a shade and cool place (freshly formulated with 1% DMSO before use). […] Phencyclidine (PCP), purchased from Sigma Aldrich, was a grayish white powder (freshly formulated with normal saline before use). 1% DMSO was formulated by diluting pure DMSO (purity>99.5, purchased from Sigma-Aldrich) with normal saline.
as §1
The administration volume was 0.1 ml/10 g body weight; PCP was formulated with normal saline at a dose of 5 mg/kg.
The test compound MDC and olanzapine were administered by gavage and PCP was administered by subcutaneous injection.
as §2, §3
Group 2: Model group: PCP (5.0 mg/kg, s.c.)+1% DMSO (10.0 ml/kg, p.o.);
Group 4: MDC low dose group: PCP (5.0 mg/kg, s.c.)+MDC (5 mg/kg, p.o.);
Group 5: MDC medium dose group: PCP (5.0 mg/kg, s.c.)+MDC (10 mg/kg, p.o.);
Group 6: MDC high dose group: PCP (5.0 mg/kg, s.c.)+MDC (20 mg/kg, p.o.).
After oral administration, the animals were immediately placed in a locomotor activity box and recorded by Shanghai Jiliang ( ? ) animal video analysis system for 1 hour.
as §4

[4] abbreviates: 5 mg/kg p.o. (low dose group; olanzapine positive control).
Where [5] appears, read: 10 mg/kg p.o. (medium dose group).
Where [6] appears, read: 20 mg/kg p.o. (high dose group).

Entries after “also recorded” stand apart in the source; their conditions may differ.

DAT, sequence (Q01959 whole entry, species assumed): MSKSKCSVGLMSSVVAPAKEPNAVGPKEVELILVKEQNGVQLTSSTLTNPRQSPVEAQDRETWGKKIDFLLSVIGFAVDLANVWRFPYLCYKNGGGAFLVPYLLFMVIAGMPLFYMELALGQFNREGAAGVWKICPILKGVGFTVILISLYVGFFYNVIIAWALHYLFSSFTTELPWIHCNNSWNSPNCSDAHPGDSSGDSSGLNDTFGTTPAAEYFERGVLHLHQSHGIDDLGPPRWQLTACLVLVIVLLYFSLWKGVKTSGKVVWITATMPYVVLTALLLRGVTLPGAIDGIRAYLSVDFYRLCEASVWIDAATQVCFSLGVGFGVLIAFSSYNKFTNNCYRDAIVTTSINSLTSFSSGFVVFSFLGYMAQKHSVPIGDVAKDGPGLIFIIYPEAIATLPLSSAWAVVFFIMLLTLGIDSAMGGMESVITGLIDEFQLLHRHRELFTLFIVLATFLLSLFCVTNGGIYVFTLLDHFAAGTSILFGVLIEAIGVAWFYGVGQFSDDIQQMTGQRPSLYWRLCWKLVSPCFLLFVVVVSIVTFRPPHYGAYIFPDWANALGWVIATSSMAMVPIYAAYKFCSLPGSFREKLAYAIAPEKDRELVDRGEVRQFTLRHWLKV

`O=S(=O)(CC(F)(F)F)Nc1cccc(C2CCN(Cc3c[nH]c4ccccc34)C2)c1` (stereo not shown) [MDC-161502-006, 1-(indole-3-methyl)-3-(3-trifluoroethanesulfonamidophenyl)pyrrolidine]: the “Distance resulting from the activity, First 30 min” value (“Distance resulting … First 30 min” for short) in test [1] (setting [4]) is 340368; in test [1] (setting [5]) it was 298763; in test [1] (setting [6]) it was 270378; in test [3] (setting [4]) it was 327586; in test [3] (setting [5]), 286745; in test [3] (setting [6]), 248576. Moreover, the “Distance resulting from the activity, Last 30 min” value (“Distance resulting … Last 30 min” below) came out at 318973 in test [1] (setting [4]); 257632 in test [1] (setting [5]); 231584 in test [1] (setting [6]); 302499 in test [3] (setting [4]); 267834 in test [3] (setting [5]); 230867 in test [3] (setting [6]). The compound further yielded an IC50 in test [2] of 762 nM.
`Oc1cccc(C2CCN(Cc3c[nH]c4ccccc34)C2)c1` (racemic) [MDC-161502-002, 1-(indole-3-methyl)-3-(3-hydroxyphenyl)pyrrolidine]: the “Effect on Amphetamine-induced high locomotor activity compared with olanzapine (in words)” value in test [1] is recorded as “equivalent to olanzapine; also recorded: better than olanzapine”. Moreover, in test [1], the “Inhibition of Amphetamine-induced high locomotor activity (in words)” value was “significantly inhibited”. Further, the “Distance resulting … First 30 min” value turned out to be 284824 in test [1] (setting [4]); 250678 in test [1] (setting [5]); 180127 in test [1] (setting [6]); 241185 in test [3] (setting [4]); 211543 in test [3] (setting [5]); 158231 in test [3] (setting [6]). Besides, the “Distance resulting … Last 30 min” value in test [1] (setting [4]) turned out to be 257329; in test [1] (setting [5]), 231296; in test [1] (setting [6]), 148036; in test [3] (setting [4]) it was 265712; in test [3] (setting [5]) it was 206789; in test [3] (setting [6]), 110918. In addition, the IC50 in test [2] worked out at 181 nM. The “Effect on PCP-induced high locomotor activity compared with olanzapine (in words)” value in test [3] was “equivalent to the effect of the positive drug olanzapine; also recorded: significant advantages over olanzapine”. For the same compound, the “Inhibition of PCP-induced high locomotor activity (in words)” value in test [3] is “inhibited PCP-induced high locomotor activity in mice”.
For the compound `O=S(=O)(Nc1cccc(C2CCN(Cc3c[nH]c4ccccc34)C2)c1)c1cccs1` (stereo not shown) [MDC-161502-008, 1-(indole-3-methyl)-3-[3-(2-thiophenesulfonamido)phenyl]pyrrolidine], in test [1], the “Effect on Amphetamine-induced high locomotor activity compared with olanzapine (in words)” value is “equivalent to olanzapine”. In test [1], the “Inhibition of Amphetamine-induced high locomotor activity (in words)” value is “significantly inhibited”. In addition, the “Distance resulting … First 30 min” value is on record as 287643 in test [1] (setting [4]); 253945 in test [1] (setting [5]); 209673 in test [1] (setting [6]); 299745 in test [3] (setting [4]); 246900 in test [3] (setting [5]); 220968 in test [3] (setting [6]). Also, the “Distance resulting … Last 30 min” value in test [1] (setting [4]) stood at 264309; in test [1] (setting [5]) it was 220678; in test [1] (setting [6]), 219876; in test [3] (setting [5]) it was 230876; in test [3] (setting [6]) it was 189765. Further, in test [2], the 50% inhibitory concentration (IC50) amounted to 936 nM. In addition, the “Effect on PCP-induced high locomotor activity compared with olanzapine (in words)” value in test [3] is “equivalent to the effect of the positive drug olanzapine”. Moreover, in test [3], the “Inhibition of PCP-induced high locomotor activity (in words)” value is on record as “inhibited PCP-induced high locomotor activity in mice”.
